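96-well plates; 48 h exposure; 5 concentrations. Endpoints by linear interpolation between flanking doses. Not reached: highest tested concentration assigned. Abbreviation: GI50, concentration required for 50% inhibition of growth.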 The source made the active and inactive calls. Cut-off read from the data, not from the text of the source: active = GI50 up to about 1.1 µM and inactive = higher. Where a SMILES comes first, the peptide text is derived from it. [ ]: non-standard residue; d: D form. 2Nal = N[CH](Cc1ccc2ccccc2c1)C(=O)O
What was measured:
Test in all cases: DTP human tumour cell line panel, 48 h
[1] = test system: UACC-62
[2] = test system: Malme-3M
[3] = test system: PC-3
[4] = test system: K562
[5] = test system: NCI-H226
[6] = test system: SK-OV-3
[7] = test system: SN12C
[8] = test system: COLO 205
[9] = test system: CCRF-CEM
[10] = test system: SW-620
[11] = test system: HT-29
[12] = test system: MOLT-4
[13] = test system: NCI-H460
[14] = test system: SK-MEL-2
[15] = test system: A498
[16] = test system: HCC 2998
[17] = test system: OVCAR-8
[18] = test system: Hs-578T
[19] = test system: SF-295
[20] = test system: M14

Measured: GI50

O=c1[nH]c(=O)n(C2OC(CO)C(O)C2O)c2ncc(-c3ccc(-c4ccccc4)cc3)nc12 (stereo not drawn)
inactive: [1] > 20 µM | [2] > 20 µM | [3] > 20 µM | [4] > 20 µM | [5] > 20 µM | [6] > 20 µM | [7] > 20 µM | [8] > 20 µM | [9] > 20 µM | [10] > 20 µM | [11] > 20 µM | [12] > 20 µM | [13] > 20 µM | [14] > 20 µM | [15] > 20 µM | [16] > 20 µM | [17] > 20 µM | [18] > 20 µM | [19] > 20 µM

CCOc1ccc(NC(=O)/C(=N\N)C(C(=O)OC)c2nc3ccc(Cl)cc3nc2O)cc1 (stereo not drawn)
inactive: [1] > 100 µM | [2] > 100 µM | [3] > 100 µM | [5] > 100 µM | [6] > 100 µM | [7] > 100 µM | [20] > 100 µM | [9] > 100 µM | [10] > 100 µM | [11] > 100 µM | [13] > 100 µM | [14] > 100 µM | [15] > 100 µM | [16] > 100 µM | [17] > 100 µM | [18] > 100 µM | [19] > 100 µM

COc1ccc(N2C(=O)C(=O)N(c3ccc(/N=N\c4ccccc4)cc3)C2=S)cc1
inactive: [1] 16.6 µM | [2] 18.5 µM | [3] 17.6 µM | [4] 37.5 µM | [5] 21.7 µM | [6] 20.2 µM | [7] 18 µM | [8] 17.1 µM | [9] 35.1 µM | [10] 18.7 µM | [11] 18.6 µM | [12] 32.9 µM | [13] 18.3 µM | [14] 17.9 µM | [15] 23.8 µM | [16] 16.4 µM | [17] 17.9 µM | [18] 27.4 µM | [19] 18.7 µM

Nc1cccnc1NCC1(CO)CCCC1
inactive: [1] > 100 µM | [2] > 100 µM | [3] > 100 µM | [4] > 100 µM | [5] > 100 µM | [6] > 100 µM | [7] > 100 µM | [8] > 100 µM | [9] > 100 µM | [10] > 100 µM | [11] > 100 µM | [12] > 100 µM | [13] > 100 µM | [14] > 100 µM | [15] > 100 µM | [16] > 100 µM | [17] > 100 µM | [18] > 100 µM | [19] > 100 µM

Cc1ccc2nc3n(c2c1)C(c1c(F)cccc1F)SC3 (stereo not drawn)
inactive: [1] > 100 µM | [2] > 100 µM | [3] > 100 µM | [4] > 100 µM | [5] > 100 µM | [6] > 100 µM | [7] > 100 µM | [20] > 100 µM | [8] > 100 µM | [9] > 100 µM | [10] > 100 µM | [11] > 100 µM | [12] 63.8 µM | [13] > 100 µM | [14] > 100 µM | [15] > 100 µM | [16] > 100 µM | [18] > 100 µM | [19] > 100 µM

OCC(CCc1ccccc1I)C1=CCC2(CC1)OCCO2 (stereo not drawn)
inactive: [1] 16.4 µM | [2] 17.8 µM | [3] 22.4 µM | [4] > 100 µM | [5] 28.4 µM | [6] 39 µM | [20] 20 µM | [8] 20.1 µM | [9] 13.5 µM | [10] 23.4 µM | [11] 18.2 µM | [12] 61.2 µM | [13] 26.5 µM | [14] 23.9 µM | [15] 24.1 µM | [16] 20.4 µM | [17] 17 µM | [18] 20.7 µM | [19] 16.4 µM

[O-]/[N+](=N\c1ccccc1CO)c1ccccc1CO
inactive: [1] > 100 µM | [2] > 100 µM | [3] > 100 µM | [4] > 100 µM | [5] > 100 µM | [6] > 100 µM | [7] > 100 µM | [20] > 100 µM | [8] > 100 µM | [9] > 100 µM | [10] > 100 µM | [11] > 100 µM | [12] > 100 µM | [13] > 100 µM | [14] > 100 µM | [15] > 100 µM | [16] > 100 µM | [17] > 100 µM | [18] > 100 µM

O=C1NC(=O)[C@@H](OCC2CCCCC2)[C@@H]2OCC3OC(C(O)C3O)C12 (stereo partly drawn)
inactive: [1] > 100 µM | [2] > 100 µM | [3] > 100 µM | [5] > 100 µM | [6] > 100 µM | [7] > 100 µM | [20] > 100 µM | [8] > 100 µM | [9] > 100 µM | [10] > 100 µM | [11] > 100 µM | [12] > 100 µM | [13] > 100 µM | [14] > 100 µM | [15] > 100 µM | [16] > 100 µM | [17] > 100 µM | [18] > 100 µM | [19] > 100 µM

O=C1CCc2ccc(O)c(c2)Oc2ccc(cc2)C(Sc2ccccc2)CCO1 (stereo not drawn)
inactive: [1] 15.1 µM | [2] 13.9 µM | [3] 6.32 µM | [4] 15.7 µM | [5] 15 µM | [6] 34.3 µM | [7] 15.8 µM | [20] 15.1 µM | [8] 17.3 µM | [9] 10.8 µM | [10] 17 µM | [11] 15.9 µM | [12] 22.1 µM | [14] 15.8 µM | [15] 17.4 µM | [16] 17.1 µM | [17] 18.1 µM | [18] 14.7 µM | [19] 17.4 µM

CC(NC(=O)C(N)Cc1ccccc1)C(=O)NC(Cc1ccc(O)cc1)C(=O)NC(Cc1c[nH]c2ccccc12)C(=O)NC(CCCCN)C(=O)NC(C(=O)NC(C)C(=O)NC(Cc1ccc2ccccc2c1)C(N)=O)C(C)C (stereo not drawn) (H-FAYWKVA[2Nal]-NH2; configuration not given here)
inactive: [1] > 12.5 µM | [2] > 12.5 µM | [3] > 12.5 µM | [4] > 12.5 µM | [5] > 12.5 µM | [6] > 12.5 µM | [7] > 12.5 µM | [20] > 12.5 µM | [8] > 12.5 µM | [9] > 12.5 µM | [10] > 12.5 µM | [11] > 12.5 µM | [13] > 12.5 µM | [14] > 12.5 µM | [15] > 12.5 µM | [16] > 12.5 µM | [17] > 12.5 µM | [18] > 12.5 µM | [19] > 12.5 µM

From ChEMBL document CHEMBL1201862, “PubChem BioAssay data set” (2004)
